Molecules are shown by their SMILES.

What all share (assay type): cell-based
In assay [1] the target is T1, TRPA1 (Rattus norvegicus, UniProt Q6RI86). The assay is described as follows: whole-cell patch clamp in transfected HEK293 cells, […] fatty acid.
For assay [2], the target named is TRPA1 (Mus musculus, UniProt Q8BLA8). Nature of the assay: whole-cell patch clamp of native TRPA1 in STC-1 cells (-60 mV). From the text: whole-cell patch clamp of native TRPA1 in STC-1 cells (-60 mV) on TRPA1 | Concentration-response curve for AITC evoked currents in STC-1 cells
TRPA1 (Mus musculus, UniProt Q8BLA8), sequence (Q8BLA8 whole entry): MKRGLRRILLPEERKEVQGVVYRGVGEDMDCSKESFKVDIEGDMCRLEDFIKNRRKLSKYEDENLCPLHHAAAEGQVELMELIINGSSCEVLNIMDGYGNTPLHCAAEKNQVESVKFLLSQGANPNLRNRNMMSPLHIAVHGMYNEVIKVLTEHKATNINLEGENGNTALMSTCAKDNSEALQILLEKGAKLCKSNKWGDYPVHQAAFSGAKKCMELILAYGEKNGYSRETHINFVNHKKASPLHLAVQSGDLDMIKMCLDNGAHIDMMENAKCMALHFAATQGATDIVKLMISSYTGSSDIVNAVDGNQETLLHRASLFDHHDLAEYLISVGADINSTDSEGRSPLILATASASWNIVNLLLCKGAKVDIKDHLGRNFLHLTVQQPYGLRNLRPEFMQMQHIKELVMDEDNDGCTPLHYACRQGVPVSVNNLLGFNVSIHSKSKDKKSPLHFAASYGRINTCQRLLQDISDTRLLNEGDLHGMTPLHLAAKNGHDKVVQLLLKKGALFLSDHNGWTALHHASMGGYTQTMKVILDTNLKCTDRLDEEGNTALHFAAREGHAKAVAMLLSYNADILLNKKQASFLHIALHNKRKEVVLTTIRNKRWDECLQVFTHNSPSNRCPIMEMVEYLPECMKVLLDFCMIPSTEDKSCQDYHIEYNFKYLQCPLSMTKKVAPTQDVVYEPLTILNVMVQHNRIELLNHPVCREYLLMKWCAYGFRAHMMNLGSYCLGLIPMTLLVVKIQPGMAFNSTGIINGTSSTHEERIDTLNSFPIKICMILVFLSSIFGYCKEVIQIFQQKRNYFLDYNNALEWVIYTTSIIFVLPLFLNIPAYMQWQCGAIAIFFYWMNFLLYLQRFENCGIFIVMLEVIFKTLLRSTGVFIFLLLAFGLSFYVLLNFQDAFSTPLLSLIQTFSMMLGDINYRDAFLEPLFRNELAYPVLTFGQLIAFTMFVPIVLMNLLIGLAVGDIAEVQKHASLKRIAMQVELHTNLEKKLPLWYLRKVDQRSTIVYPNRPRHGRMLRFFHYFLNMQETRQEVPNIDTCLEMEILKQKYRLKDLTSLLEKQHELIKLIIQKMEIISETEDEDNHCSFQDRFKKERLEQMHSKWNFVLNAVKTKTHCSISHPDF
In general terms: Patch clamp records ionic current or voltage across a cell membrane.

Assay [3] deals with T1, TRPA1. The assay is described as follows: whole-cell patch clamp in transfected HEK293 cells (-60 mV), with NAC.
Assay [4] addresses T1, TRPA1. The assay is described as follows: patch clamp of native TRPA1 in RIN14B cells, block of DHA current at […].

T1 sequence (Q6RI86 whole entry): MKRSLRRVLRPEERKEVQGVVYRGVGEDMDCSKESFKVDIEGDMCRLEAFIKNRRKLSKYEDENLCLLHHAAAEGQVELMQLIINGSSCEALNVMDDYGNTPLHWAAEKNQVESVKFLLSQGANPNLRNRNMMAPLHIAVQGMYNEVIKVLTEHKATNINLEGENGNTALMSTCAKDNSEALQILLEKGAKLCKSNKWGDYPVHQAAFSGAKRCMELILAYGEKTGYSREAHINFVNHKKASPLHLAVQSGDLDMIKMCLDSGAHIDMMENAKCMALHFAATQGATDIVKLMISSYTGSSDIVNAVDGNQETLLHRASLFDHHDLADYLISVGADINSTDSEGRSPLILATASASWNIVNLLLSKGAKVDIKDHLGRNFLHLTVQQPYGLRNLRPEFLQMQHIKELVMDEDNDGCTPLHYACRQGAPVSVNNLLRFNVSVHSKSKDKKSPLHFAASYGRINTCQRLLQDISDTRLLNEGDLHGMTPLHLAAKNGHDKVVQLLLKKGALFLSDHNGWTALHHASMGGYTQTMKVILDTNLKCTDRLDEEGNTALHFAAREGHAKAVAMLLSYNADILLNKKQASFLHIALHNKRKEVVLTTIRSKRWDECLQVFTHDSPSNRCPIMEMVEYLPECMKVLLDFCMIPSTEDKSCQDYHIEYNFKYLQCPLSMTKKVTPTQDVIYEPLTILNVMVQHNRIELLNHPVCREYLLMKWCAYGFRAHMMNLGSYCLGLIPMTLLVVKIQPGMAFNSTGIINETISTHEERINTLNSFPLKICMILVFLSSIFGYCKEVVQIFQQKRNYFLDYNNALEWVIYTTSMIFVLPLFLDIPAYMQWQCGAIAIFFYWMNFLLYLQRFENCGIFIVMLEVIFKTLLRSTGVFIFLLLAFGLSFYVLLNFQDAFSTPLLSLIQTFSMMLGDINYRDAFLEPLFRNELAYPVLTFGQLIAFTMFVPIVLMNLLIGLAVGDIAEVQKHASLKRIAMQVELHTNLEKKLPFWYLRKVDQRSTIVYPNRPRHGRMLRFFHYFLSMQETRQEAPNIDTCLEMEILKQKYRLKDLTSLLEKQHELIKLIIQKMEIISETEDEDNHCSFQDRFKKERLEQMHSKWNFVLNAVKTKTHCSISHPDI

`CCCCC/C=C\C/C=C\C/C=C\C/C=C\CCCC(=O)O` [AA, arachidonic acid]: the “whole-cell patch clamp in transfected HEK293 cells, 100 μM fatty acid” value at TRPA1 [1] is “Thus, AA, EPA and DHA possess approximate equivalent efficacy”.

The term EC50 denotes the concentration giving half of the maximal effect. Read a high EC50 as a less potent agent. `C=CCN=C=S` [AITC, allyl isothiocyanate] displayed an EC50 on TRPA1 [2] of 29 µM.

The molecule `CC/C=C\C/C=C\C/C=C\C/C=C\C/C=C\C/C=C\CCC(=O)O` [DHA, docosahexaenoic acid] displayed an EC50 on TRPA1 [3] of 41 µM.

For `CC(C)c1ccc(NC(=O)Cn2cnc3c2c(=O)n(C)c(=O)n3C)cc1` [HC030031], at TRPA1 [4], the “patch clamp of native TRPA1 in RIN14B cells, block of DHA current at 50 μM” value is “outwardly-rectified conductance in voltage-clamped STC-1 and RIN14B cells, that is inhibited by the TRPA1 antagonist, HC030031”.

The values above are taken from PMC3378573, “TRPA1 Is a Polyunsaturated Fatty Acid Sensor in Mammals” (PLoS ONE, 2012).
